Test results published in ChEMBL document CHEMBL1201862, “PubChem BioAssay data set” (2004).
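Cells were grown in 96-well plates and exposed to each compound for 48 hours at five concentrations; endpoints were interpolated linearly between bracketing concentrations, or set to the highest concentration if not reached. The concentration for 50% growth inhibition is given as GI50.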 Activity calls are given as the source filed them. No stated cut-off is given here; in the data, active = GI50 up to about 1.1 µM and inactive = higher.

Experiments:
Assay in all cases: growth of human tumour cells (NCI), 48 h
786-0 = system: 786-0
RPMI-8226 = system: RPMI-8226
SK-MEL-2 = system: SK-MEL-2
UO-31 = system: UO-31
IGROV-1 = system: IGROV-1
K562 = system: K562
CCRF-CEM = system: CCRF-CEM
ACHN = system: ACHN
COLO 205 = system: COLO 205
SF-295 = system: SF-295
MDA-N = system: MDA-N
MOLT-4 = system: MOLT-4
A549 = system: A549
SNB-19 = system: SNB-19
CAKI-1 = system: CAKI-1
HOP-92 = system: HOP-92
T47D = system: T47D
EKVX = system: EKVX
U-251 = system: U-251
SN12C = system: SN12C
KM12 = system: KM12
PC-3 = system: PC-3
SW-620 = system: SW-620
MCF7 = system: MCF7
A498 = system: A498
OVCAR-3 = system: OVCAR-3
UACC-257 = system: UACC-257
HOP-62 = system: HOP-62
NCI/ADR-RES = system: NCI/ADR-RES
BT-549 = system: BT-549
NCI-H226 = system: NCI-H226
M14 = system: M14
NCI-H460 = system: NCI-H460
SF-539 = system: SF-539
HCT-116 = system: HCT-116
HCC 2998 = system: HCC 2998
UACC-62 = system: UACC-62
LOX IMVI = system: LOX IMVI
DU-145 = system: DU-145
HL-60 = system: HL-60
OVCAR-5 = system: OVCAR-5
OVCAR-8 = system: OVCAR-8
SK-MEL-5 = system: SK-MEL-5
SNB-75 = system: SNB-75
SK-OV-3 = system: SK-OV-3
SK-MEL-28 = system: SK-MEL-28
SR = system: SR
MDA-MB-435 = system: MDA-MB-435
HCT-15 = system: HCT-15
NCI-H23 = system: NCI-H23

Structure (SMILES): N#Cc1c(N2CCOCC2)ncn(-c2ccc(Cl)cc2)c1=O
- GI50 (786-0): > 100 µM (inactive)
- GI50 (RPMI-8226): > 100 µM (inactive)
- GI50 (SK-MEL-2): > 100 µM (inactive)
- GI50 (UO-31): > 100 µM (inactive)
- GI50 (IGROV-1): > 100 µM (inactive)
- GI50 (K562): > 100 µM (inactive)
- GI50 (CCRF-CEM): > 100 µM (inactive)
- GI50 (ACHN): > 100 µM (inactive)
- GI50 (COLO 205): > 100 µM (inactive)
- GI50 (SF-295): > 100 µM (inactive)
- GI50 (MDA-N): > 100 µM (inactive)
- GI50 (MOLT-4): > 100 µM (inactive)
- GI50 (A549): > 100 µM (inactive)
- GI50 (SNB-19): > 100 µM (inactive)
- GI50 (CAKI-1): > 100 µM (inactive)
- GI50 (HOP-92): > 100 µM (inactive)
- GI50 (T47D): > 100 µM (inactive)
- GI50 (EKVX): > 100 µM (inactive)
- GI50 (U-251): > 100 µM (inactive)
- GI50 (SN12C): > 100 µM (inactive)
- GI50 (KM12): > 100 µM (inactive)
- GI50 (PC-3): > 100 µM (inactive)
- GI50 (SW-620): > 100 µM (inactive)
- GI50 (MCF7): > 100 µM (inactive)
- GI50 (A498): > 100 µM (inactive)
- GI50 (OVCAR-3): > 100 µM (inactive)
- GI50 (UACC-257): > 100 µM (inactive)
- GI50 (HOP-62): > 100 µM (inactive)
- GI50 (NCI/ADR-RES): > 100 µM (inactive)
- GI50 (BT-549): > 100 µM (inactive)
- GI50 (NCI-H226): > 100 µM (inactive)
- GI50 (M14): > 100 µM (inactive)
- GI50 (NCI-H460): > 100 µM (inactive)
- GI50 (SF-539): > 100 µM (inactive)
- GI50 (HCT-116): > 100 µM (inactive)
- GI50 (HCC 2998): > 100 µM (inactive)
- GI50 (UACC-62): > 100 µM (inactive)
- GI50 (LOX IMVI): > 100 µM (inactive)
- GI50 (DU-145): > 100 µM (inactive)
- GI50 (HL-60): 18.1 µM (inactive)
- GI50 (OVCAR-5): > 100 µM (inactive)
- GI50 (OVCAR-8): > 100 µM (inactive)
- GI50 (SK-MEL-5): > 100 µM (inactive)
- GI50 (SNB-75): > 100 µM (inactive)
- GI50 (SK-OV-3): > 100 µM (inactive)
- GI50 (SK-MEL-28): > 100 µM (inactive)
- GI50 (SR): > 100 µM (inactive)
- GI50 (MDA-MB-435): > 100 µM (inactive)
- GI50 (HCT-15): > 100 µM
- GI50 (NCI-H23): > 100 µM (inactive)
